Data from the NIST ThermoML archive (doi:10.1016/j.jct.2018.12.012).
± gives the expanded uncertainty stated by the source.

Experiments:
[1] = xn = mol fraction of the nth substance listed; conditions: 100 kPa, Liquid, x2 = 0; for speed of sound: Frequency=3 MHz, Single path-length method; for mass density: Vibrating tube method
[2] = 100 kPa, Liquid; for speed of sound: Frequency=3 MHz, Single path-length method; for mass density: Vibrating tube method

Row | Structure (SMILES) | speed of sound ([1]; 293.15 K) [m/s] | mass density ([1]; 293.15 K) [kg/m3] | speed of sound ([1]; 298.15 K) [m/s] | mass density ([1]; 298.15 K) [kg/m3] | speed of sound ([1]; 303.15 K) [m/s] | mass density ([1]; 303.15 K) [kg/m3] | speed of sound ([1]; 308.15 K) [m/s] | mass density ([1]; 308.15 K) [kg/m3] | speed of sound ([2]; 293.15 K) [m/s] | mass density ([2]; 293.15 K) [kg/m3] | speed of sound ([2]; 298.15 K) [m/s] | mass density ([2]; 298.15 K) [kg/m3] | speed of sound ([2]; 303.15 K) [m/s] | mass density ([2]; 303.15 K) [kg/m3] | speed of sound ([2]; 308.15 K) [m/s] | mass density ([2]; 308.15 K) [kg/m3]
1 | CCC(C)O (centres undefined) [butan-2-ol] + CC(C)NC(C)C | 1229.9 ± 6.2 | 806.952 ± 1.4 | 1212.1 ± 6.2 | 802.847 ± 1.4 | 1194.1 ± 6.2 | 798.651 ± 1.4 | 1176 ± 6.2 | 794.363 ± 1.4 |  |  |  |  |  |  |  | 
2 | CCCC(C)O (centres undefined) [pentan-2-ol] |  |  |  |  |  |  |  |  | 1250.3 ± 6.5 | 809.399 ± 1.5 | 1232.4 ± 6.5 | 805.37 ± 1.5 | 1214.1 ± 6.5 | 801.27 ± 1.5 | 1195.7 ± 6.5 | 797.08 ± 1.5
3 | CCCC(C)O (centres undefined) [pentan-2-ol] + CCCCNCCCC | 1250.3 ± 6.5 | 809.399 ± 1.5 | 1232.4 ± 6.5 | 805.37 ± 1.5 | 1214.1 ± 6.5 | 801.27 ± 1.5 | 1195.7 ± 6.5 | 797.08 ± 1.5 |  |  |  |  |  |  |  | 
4 | CC(C)NC(C)C [diisopropylamine] |  |  |  |  |  |  |  |  | 1116.4 ± 6.3 | 717.305 ± 1.4 | 1093.8 ± 6.3 | 712.441 ± 1.4 | 1071.1 ± 6.3 | 707.55 ± 1.4 | 1043.5 ± 6.3 | 702.661 ± 1.4
5 | CCCC(C)O (centres undefined) [pentan-2-ol] + CC(C)NC(C)C | 1250.3 ± 6.5 | 809.399 ± 1.5 | 1232.4 ± 6.5 | 805.37 ± 1.5 | 1214.1 ± 6.5 | 801.27 ± 1.5 | 1195.7 ± 6.5 | 797.08 ± 1.5 |  |  |  |  |  |  |  | 
6 | CCC(C)O (centres undefined) [butan-2-ol] |  |  |  |  |  |  |  |  | 1229.9 ± 6.2 | 806.952 ± 1.4 | 1212.1 ± 6.2 | 802.847 ± 1.4 | 1194.1 ± 6.2 | 798.651 ± 1.4 | 1176 ± 6.2 | 794.363 ± 1.4
7 | CCC(C)O (centres undefined) [butan-2-ol] + CCCCNCCCC | 1229.9 ± 6.2 | 806.952 ± 1.4 | 1212.1 ± 6.2 | 802.847 ± 1.4 | 1194.1 ± 6.2 | 798.651 ± 1.4 | 1176 ± 6.2 | 794.363 ± 1.4 |  |  |  |  |  |  |  | 
8 | CCCCNCCCC [dibutylamine] |  |  |  |  |  |  |  |  | 1260.1 ± 6.3 | 759.579 ± 1.4 | 1240.1 ± 6.3 | 755.48 ± 1.4 | 1220.3 ± 6.3 | 751.374 ± 1.4 | 1200.6 ± 6.3 | 747.268 ± 1.4
